Experimental data from patent US20180086749A1, “INHIBITORS OF VIRUSES” (priority 2015, published 2018).
Where two headings read alike, the source gives them in different places.

Tests used:
VEEV V3526-luc = experiment: microbe, parasite or virus in culture; format: cell-based, Venezuelan equine encephalitis virus; details: for EC50: Venezuelan equine encephalitis virus
[1] = system: IFN α/β in HEK 293T culture supernatant; format: cell-based, human; details: 18 hours
Influenza virus A (H1N1) = format: cell-based
CHIKV (S27 strain) = CHIKV (S27 strain) CPE assay; format: cell-based, Chikungunya virus

SMILES: CN(C(=O)Cc1sccc1F)c1nc2c(s1)CCCC2 [ML416, 2-(3-fluorothiophen-2-yl)-N-methyl-N-(4,5,6,7-tetrahydro-1,3-benzothiazol-2-yl)acetamide]
- antiviral effect (VEEV V3526-luc): moderate effect
- effect of DHO addition on antiviral activity (VEEV V3526-luc): did not affect the antiviral activity
- EC50 (VEEV V3526-luc): 0.17 µM
- EC50 (VEEV V3526-luc; BHK, read-out: EC50 V3526-luc): 1.12 µM
- EC50 (VEEV V3526-luc; HEK-293T, read-out: EC50 V3526-luc): 0.15 µM
- EC50 (VEEV V3526-luc; N2a, read-out: EC50 V3526-luc): > 50 µM
- EC50 (VEEV V3526-luc; NIH3T3, read-out: EC50 V3526-luc): > 50 µM
- EC50 (VEEV V3526-luc; Vero 76, read-out: EC50 V3526-luc): 0.17 µM
- EC50 (VEEV V3526-luc; in Mus musculus): > 50 µM
- EC50 (VEEV V3526-luc; read-out: EC50 V3526-luc): 0.49 µM
- EC50 (VEEV V3526-luc; read-out: EC50 values range): 0.15 to 0.68 µM
- IFN α/β in cell culture supernatant [1]: no measurable quantity of IFNs was detected
- Log titer inhibition at 5 μM (Influenza virus A (H1N1)): −3.03 Log
- Log reduction in progeny virus titers (Influenza virus A (H1N1); 5 μM): greater than 3 Log
- EC50 (CHIKV (S27 strain); Chikungunya virus): 0.29 µM
- inhibition of CHIKV-induced cytopathic effect (CHIKV (S27 strain); in words): in the nanomolar range
